Experimental data taken from patent publication US20260132123A1, “ABAD INHIBITOR COMPOUNDS” (UNIVERSITY COURT OF THE UNIVERSITY OF ST ANDREWS, priority 2021, published 2026).

Biological target: T1, 17β-HSD10 (Homo sapiens, UniProt Q99714)
T1 construct: Histev (histidine tag with TEV site) (N, cleaved yes); made in house; host or cells: E. coli BL21-CodonPlus
T1 sequence (Q99714 1-261): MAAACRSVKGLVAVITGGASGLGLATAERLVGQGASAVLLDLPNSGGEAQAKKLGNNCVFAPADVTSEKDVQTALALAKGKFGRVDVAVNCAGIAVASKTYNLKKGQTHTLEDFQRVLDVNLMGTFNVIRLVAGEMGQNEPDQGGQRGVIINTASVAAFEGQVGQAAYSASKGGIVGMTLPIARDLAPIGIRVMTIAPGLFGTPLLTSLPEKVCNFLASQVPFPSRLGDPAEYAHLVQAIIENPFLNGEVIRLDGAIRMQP
Assay: 17β-HSD10 (ABAD) enzyme inhibition assay, NADH oxidation read at 340 nm (primary screen and dose response)
Format: biochemical
Conditions: for EC50 / Max. Effect (%) / Hill Slope / Max. Fit / Min. Fit: recombinant 17βHSD10 enzyme assay; for Hill Slope / Max. Fit / Min. Fit: curve fit
Method: Cell pellets of E. coli BL21-CodonPlus cells containing Histev-17β-HSD10 protein were re-suspended for 30 min, 4° C., in lysis buffer (20 mM NaH2PO4, 30 mM imidazole, 500 mM NaCl, 10% (v/v) glycerol, pH 7.5) with the addition of complete ethylenediaminetetraacetic acid (EDTA)-free protease inhibitor tablets (Roche), lysozyme (1 mg/mL), deoxyribonuclease (DNase) (20 μg/mL) and Triton X-100 (0.1% (v/v)). Cells were lysed by passage through a cell disruptor at 30 kPSI (Constant Systems Ltd) and the lysate was cleared by centrifugation (Sorvall Evolution RC, rotor S5-34 55-34 angle, 20500 rpm, 30 min, 4° C.). Cleared lysate was filtered (0.45 μm membrane; Whatman) then applied to a Ni-nitrilotriacetic acid (NTA) (GE Healthcare) column pre-washed with lysis buffer and protein eluted with 300 mM imidazole buffer (20 mM NaH2PO4, 300 mM imidazole, 500 mM NaCl, 10% (v/v) glycerol, pH 7.5). […] Protein digestion and dialysis was carried out at 4° C. for 16 h.
Complete digestion was firstly checked by sodium dodecyl sulfate-polyacrylamide gel electrophoresis (SDS-PAGE), then fully digested protein was passed over a second Ni-column and the flow-through, containing 17β-HSD10 protein, was concentrated using a Vivaspin column (10 kDa MWCO, GE Healthcare) to ˜7 mL before final purification using gel filtration to remove imidazole (Hi-Load 16/60 Superdex 75 prep grade column, GE Healthcare, flow rate 1.5 mL/min). Protein was eluted in gel filtration buffer (10 mM trisaminomethane (Tris-HCl), 150 mM NaCl, 10% glycerol, pH 7.5) and concentrated (Vivaspin column (10 kDa molecular weight cut off (MWCO), GE Healthcare)) to 10 mg/mL. Aliquots (10 μL) were taken and flash frozen in liquid nitrogen before final storage at −80° C.
The assay buffer used contains: 10 mM Tris. HCl (pH 7.4), 150 mM NaCl, 1 mM DTT, 0.005% Tween (polysorbate 20) and 0.01% bovine serum albumin (BSA). As indicated for some experiments the assay buffer was supplemented with 100 units/ml bovine liver catalase. All experiments were conducted in clear bottom 384-well or 1536-well low volume microplates (Corning) with a final assay volume of 20 μL and the reaction progress was monitored by oxidation of NADH as determined by reduction in absorbance at 340 nm read on the EnVision plate reader (PerkinElmer).
For primary screening an endpoint assay format was adopted in which an Echo acoustic liquid dispenser (Labcyte) was used to transfer 20 nL of either reference standard, dimethylsulfoxide (DMSO) control ([…] final assay concentration (FAC)) or test compounds (10 μM FAC) to the assay plate. 10 μL of 17β-HSD10 enzyme in assay buffer (2.5 nM, FAC) was then added to the plates using the Preddator liquid handling robot (Redd and Whyte) and plates were incubated at room temperature for 15 minutes. 10 μL of substrate mixture (100 μM acetoacetyl-CoA and 100 μM NADH, FAC) was added with the Preddator. To start the reaction and the plates were left to incubate for 35 minutes at room temperature before the absorbance at 340 nm was read on the EnVision plate reader (PerkinElmer). For kinetic assay format and dose response follow up experiments the same protocol was adopted but the absorbance at 340 nm was monitored constantly for 45 minutes from immediately after the reaction was started.

| EC50 [nM] | Max. Effect (%) | Hill Slope | Max. Fit | Min. Fit | 17β-HSD10 / ABAD activity in words (SAR discussion) | Compound |
| --- | --- | --- | --- | --- | --- | --- |
| > 20000 | 10 |  |  |  |  | COc1cccc(-c2ccccc2[C@@H]2CCCN2C(=O)c2nc[nH]n2)c1 (racemic) [ESC1002599] |
| 4370 | 75 | 1.2 | 86 | 1 |  | COc1cccc(-c2ccccc2[C@@H]2CCCN2C(=O)c2ncc[nH]2)c1 (racemic) [ESC1002600] |
| > 20000 | 20 |  |  |  |  | COc1cccc(-c2ccccc2[C@@H]2CCCN2C(=O)C(C)(C)C)c1 (racemic) [ESC1002604] |
| > 20000 | 5 |  |  |  |  | COc1cccc(-c2ccccc2[C@@H]2CCCN2C(=O)c2snc(Cl)c2Cl)c1 (racemic) [ESC1002627] |
| > 20000 | 7 |  |  |  |  | COc1cccc(-c2ccccc2[C@@H]2CCCN2C(=O)c2nccn2C)c1 (racemic) [ESC1002661] |
| 603 | 92 | 1.2 | 92 | −1 |  | COc1cc(OC)cc(-c2ccccc2[C@@H]2CCCN2C(=O)c2sccc2Cl)c1 (racemic) [ESC1002662] |
| 603 | 95 | 1 | 97 | −3 |  | COc1cc(-c2ccccc2[C@@H]2CCCN2C(=O)c2sccc2Cl)ccn1 (racemic) [ESC1002665] |
| 58.9 | 99 | 1.1 | 98 | 0 |  | O=C(c1sccc1Cl)N1CCCC1c1ccccc1-c1cccc(O)c1 (racemic) [ESC1002666, (3-chlorothiophen-2-yl)(2-(3′-hydroxy-[1,1′-biphenyl]-2-yl)pyrrolidin-1-yl)methanone] |
| > 20000 | 1 |  |  |  | lost all activity | COc1cccc(-c2ccccc2[C@@H]2CCCN2Cc2sccc2F)c1 (racemic) [ESC1002695] |

The remaining lines, values behind:

| Compound | EC50 [nM] | Max. Effect (%) | Hill Slope | Max. Fit | Min. Fit | 17β-HSD10 / ABAD activity in words (SAR discussion) |
| --- | --- | --- | --- | --- | --- | --- |
| COc1cccc(-c2ccccc2[C@@H]2CCCN2C(=O)c2cocn2)c1 (racemic) [ESC1002598] | > 20000 | 50 |  |  |  |  |
| COc1cccc(-c2ccccc2[C@@H]2CCCN2C(=O)c2cn[nH]c2)c1 (racemic) [ESC1002601] | 6310 | 82 | 0.74 | 115 | −7 |  |
| COc1cccc(-c2ccccc2[C@@H]2CCCN2C(=O)C23CC(C2)C3)c1 (racemic) [ESC1002602] | > 20000 | 43 |  |  |  |  |
| COc1cccc(-c2ccccc2[C@@H]2CCCN2C(=O)C(C)C)c1 (racemic) [ESC1002603] | > 20000 | 21 |  |  |  |  |
| COc1cccc(-c2ccccc2[C@@H]2CCCN2C(=O)c2[nH]ncc2Cl)c1 (racemic) [ESC1002626] | 457 | 95 | 1.6 | 91 | −1 |  |
| COc1ccc(-c2ccccc2[C@@H]2CCCN2C(=O)c2sccc2Cl)cc1OC (racemic) [ESC1002663] | 575 | 93 | 1.1 | 95 | −8 |  |
| CCOc1cccc(-c2ccccc2[C@@H]2CCCN2C(=O)c2sccc2Cl)c1 (racemic) [ESC1002664] | 417 | 92 | 1.2 | 92 | 0 |  |
| O=C(c1sccc1Cl)N1CCC[C@H]1c1ccccc1-c1ccc(O)cc1 (racemic) [ESC1002696] | 302 | 97 | 1.2 | 97 | 1 |  |
| O=C(c1sccc1Cl)N1CCC[C@H]1c1ccccc1-c1ccnc(O)c1 (racemic) [ESC1002697] | > 20000 | 43 |  |  |  | less active |
